Legend:
Cytochrome P450 3A4 = Cytochrome P450 3A4 (Homo sapiens, UniProt P08684); assay: Inhibition of human recombinant CYP3A4-mediated oxidation of 7-benzyloxyquinoline
Liver microsomes = assay: Intrinsic clearance in human liver microsomes; type: ADME, Microsome
in vivo = settings: Beagle, dog, po, 5 mg/kg
Canis familiaris = species: Canis familiaris; settings: dog, in vivo, po, 5 mg/kg

Chain of Cytochrome P450 3A4 (P08684 whole entry): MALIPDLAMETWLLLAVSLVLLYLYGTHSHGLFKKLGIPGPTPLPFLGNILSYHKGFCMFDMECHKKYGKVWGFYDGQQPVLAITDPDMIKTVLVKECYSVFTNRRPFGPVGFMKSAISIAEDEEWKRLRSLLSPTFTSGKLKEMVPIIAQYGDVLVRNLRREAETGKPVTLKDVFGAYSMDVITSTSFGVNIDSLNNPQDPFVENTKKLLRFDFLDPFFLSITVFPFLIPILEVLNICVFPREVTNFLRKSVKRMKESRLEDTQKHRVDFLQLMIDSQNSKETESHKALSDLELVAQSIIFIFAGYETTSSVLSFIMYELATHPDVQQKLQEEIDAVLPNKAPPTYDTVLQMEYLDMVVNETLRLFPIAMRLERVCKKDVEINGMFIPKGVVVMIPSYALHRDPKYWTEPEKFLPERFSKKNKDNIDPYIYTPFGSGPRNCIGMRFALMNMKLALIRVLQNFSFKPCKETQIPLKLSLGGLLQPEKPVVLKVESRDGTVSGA

Structure (SMILES) | IC50 (Cytochrome P450 3A4) | IC50 (Liver microsomes) | Cmax (in vivo) | AUC (Canis familiaris)
CCN(C[C@H](Cc1ccccc1)NC(=O)OCc1cccs1)C[C@H](Cc1ccccc1)NC(=O)OCc1cccs1 | 741 nM |  |  | 
O=C(NC(Cc1ccccc1)CN(CC(Cc1ccccc1)NC(=O)OCc1cncs1)CC(Cc1ccccc1)NC(=O)OCc1cncs1)OCc1cncs1 (stereo not given) |  | 54 nM | 30 ng/mL | 0.06 µg/mL
CCN(C[C@H](Cc1ccccc1)NC(=O)OCc1cncs1)C[C@H](Cc1ccccc1)NC(=O)OCc1cncs1 |  |  | 610 ng/mL | 1.38 µg/mL
CCN(C[C@H](Cc1ccccc1)NC(=O)OCc1cnco1)C[C@H](Cc1ccccc1)NC(=O)OCc1cnco1 | 274 nM |  |  | 
CC(C)c1nc(CN(C)C(=O)N[C@H](C(=O)N[C@@H](Cc2ccccc2)C[C@H](O)[C@H](Cc2ccccc2)NC(=O)OCc2cncs2)C(C)C)cs1 [RITONAVIR] |  | 40 nM | 1320 ng/mL | 2.19 µg/mL
CCN(CCNC(=O)OCc1cncs1)CCNC(=O)OCc1cncs1 | > 3000 nM |  |  | 
CCN(C[C@H](Cc1ccccc1)NC(=O)OCc1cnc[nH]1)C[C@H](Cc1ccccc1)NC(=O)OCc1cnc[nH]1 | 348 nM |  |  | 
CCN(CC(CC1CCCCC1)NC(=O)OCc1cncs1)CC(CC1CCCCC1)NC(=O)OCc1cncs1 (stereo not given) | 66 nM |  |  | 
CCN(CC(CC(=O)OC)NC(=O)OCc1cncs1)CC(CC(=O)OC)NC(=O)OCc1cncs1 (stereo not given) | 88 nM |  |  | 
CCN(C[C@H](CC(C)C)NC(=O)OCc1cncs1)C[C@H](CC(C)C)NC(=O)OCc1cncs1 | 136 nM |  |  | 
